Source: ChEMBL document CHEMBL1201862, “PubChem BioAssay data set” (2004)
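Following 48 hours of exposure in 96-well plates, responses at five concentrations were used to interpolate endpoints linearly. Abbreviation: GI50, concentration required for 50% inhibition of growth.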 Active and inactive are the calls of the source. Rule as the data show it: active = GI50 up to about 1.1 µM and inactive = higher.

Tests used:
Assay in all cases: NCI anticancer screen, dose series, 48 h
DLD-1 = test system: DLD-1
SNB-78 = test system: SNB-78
LXFL 529 = test system: LXFL 529
DMS-273 = test system: DMS-273
RXF 631 = test system: RXF 631
XF498 = test system: XF498
DMS-114 = test system: DMS-114
M19-MEL = test system: M19-MEL
KM-20L2 = test system: KM-20L2

NC1C2(CCCCCC2)NC(=O)C12CCCCCC2 (centres undefined) was tested, and the GI50 (DLD-1) was > 100 µM (inactive), the GI50 (SNB-78) was > 100 µM (inactive) and the GI50 (LXFL 529) was > 100 µM (inactive). For the same compound, the GI50 (DMS-273) was > 100 µM (inactive), the GI50 (RXF 631) was > 100 µM (inactive) and the GI50 (XF498) was > 100 µM (inactive). The GI50 (DMS-114) was > 100 µM (inactive).
With O=C(Cc1ccccc1)NN1C(=O)C(Cl)C1c1ccccc1O (centres undefined) the GI50 (DLD-1) was 9.95 µM (inactive), the GI50 (SNB-78) was 50.7 µM (inactive) and the GI50 (M19-MEL) was 19.3 µM (inactive). For the same compound, the GI50 (LXFL 529) was 24.4 µM (inactive), the GI50 (DMS-273) was 20.5 µM (inactive) and the GI50 (KM-20L2) was 4.57 µM (inactive). The GI50 (XF498) was 43.6 µM (inactive) and the GI50 (DMS-114) was 4.46 µM (inactive).
CN/C(=N/C#N)NCc1ccccc1 was tested, and the GI50 (DLD-1) was > 100 µM (inactive), the GI50 (SNB-78) was > 100 µM (inactive) and the GI50 (M19-MEL) was > 100 µM (inactive). For the same compound, the GI50 (LXFL 529) was > 100 µM (inactive), the GI50 (DMS-273) was > 100 µM (inactive) and the GI50 (KM-20L2) was > 100 µM (inactive). For the same compound, the GI50 (XF498) was > 100 µM (inactive) and the GI50 (DMS-114) was > 100 µM (inactive).
For Oc1c(Cl)c2nccnc2c2ccccc12, the GI50 (DLD-1) was > 100 µM (inactive), the GI50 (SNB-78) was > 100 µM (inactive) and the GI50 (M19-MEL) was > 100 µM (inactive). For the same compound, the GI50 (LXFL 529) was > 100 µM (inactive), the GI50 (DMS-273) was > 100 µM (inactive) and the GI50 (KM-20L2) was > 100 µM (inactive). For the same compound, the GI50 (XF498) was > 100 µM (inactive) and the GI50 (DMS-114) was > 100 µM (inactive).
With O=C(c1ccccc1)C1OC12C(=O)Nc1c(Cl)cc(Cl)cc12 (centres undefined) the GI50 (DLD-1) was 18.6 µM (inactive), the GI50 (SNB-78) was > 50.5 µM (inactive) and the GI50 (M19-MEL) was 27 µM (inactive). The GI50 (LXFL 529) was 23.6 µM (inactive), the GI50 (DMS-273) was 15.9 µM (inactive) and the GI50 (RXF 631) was 27 µM (inactive). For the same compound, the GI50 (KM-20L2) was 72.1 µM (inactive), the GI50 (XF498) was 10.7 µM (inactive) and the GI50 (DMS-114) was 30.1 µM (inactive).
In the case of Cc1[nH]c2ccccc2c1C(=O)CC1(O)C(=O)Nc2c(Cl)cc(Cl)cc21 (centres undefined), the GI50 (DLD-1) is reported as 44.9 µM (inactive), the GI50 (SNB-78) is reported as 40.7 µM (inactive) and the GI50 (M19-MEL) is reported as 9.31 µM (inactive). The GI50 (LXFL 529) was 16.4 µM (inactive), the GI50 (DMS-273) was 49.1 µM (inactive) and the GI50 (RXF 631) was 29.4 µM (inactive). The GI50 (XF498) was 18.2 µM (inactive) and the GI50 (DMS-114) was 24.3 µM (inactive).
For COc1ccc2nc3cc(Cl)ccc3c(SCC(=O)Nc3ccccc3-c3ccccc3NC(=O)CSc3c4ccc(Cl)cc4nc4ccc(OC)cc34)c2c1, the GI50 (DLD-1) was > 100 µM (inactive), the GI50 (SNB-78) was > 100 µM (inactive) and the GI50 (M19-MEL) was > 100 µM (inactive). For the same compound, the GI50 (LXFL 529) was > 100 µM (inactive), the GI50 (DMS-273) was > 100 µM (inactive) and the GI50 (KM-20L2) was > 100 µM (inactive). For the same compound, the GI50 (XF498) was > 100 µM (inactive) and the GI50 (DMS-114) was > 100 µM (inactive).
With O=C1NC(=O)c2c1n(Cc1ccccc1)c(=O)n2Cc1ccccc1 the GI50 (DLD-1) was > 100 µM (inactive), the GI50 (SNB-78) was > 100 µM (inactive) and the GI50 (M19-MEL) was > 100 µM (inactive). The GI50 (LXFL 529) was > 100 µM (inactive), the GI50 (DMS-273) was > 100 µM (inactive) and the GI50 (KM-20L2) was > 100 µM (inactive). The GI50 (DMS-114) was > 100 µM (inactive).
CC[C@@]1(O)C(=O)OCc2c1cc1n(c2=O)Cc2c-1nc1ccccc1c2Cl was tested, and the GI50 (DLD-1) was 0.877 µM (active), the GI50 (SNB-78) was 2.65 µM (inactive) and the GI50 (M19-MEL) was 0.08 µM (active). For the same compound, the GI50 (LXFL 529) was 0.935 µM (active), the GI50 (DMS-273) was < 0.01 µM (active) and the GI50 (KM-20L2) was 0.216 µM (active). For the same compound, the GI50 (XF498) was 0.0767 µM (active) and the GI50 (DMS-114) was < 0.0104 µM (active).
O=C1NC(=S)NC(=O)C1=Cc1ccc[nH]1 was tested, and the GI50 (DLD-1) was 6.85 µM (inactive), the GI50 (SNB-78) was 19.4 µM (inactive) and the GI50 (M19-MEL) was 13.4 µM (inactive). For the same compound, the GI50 (LXFL 529) was 10.3 µM (inactive), the GI50 (DMS-273) was 3.79 µM (inactive) and the GI50 (KM-20L2) was 5.94 µM (inactive). The GI50 (XF498) was 17.7 µM (inactive) and the GI50 (DMS-114) was 10.8 µM (inactive).
In the case of C[N+]1=c2c3cccc4cccc(c(=O)n2CCC1)c43, the GI50 (DLD-1) is reported as 21.4 µM (inactive), the GI50 (SNB-78) is reported as 29 µM (inactive) and the GI50 (M19-MEL) is reported as 17.9 µM (inactive). The GI50 (LXFL 529) was 17.6 µM (inactive), the GI50 (DMS-273) was 24.4 µM (inactive) and the GI50 (KM-20L2) was 20 µM (inactive). For the same compound, the GI50 (XF498) was 18.6 µM (inactive) and the GI50 (DMS-114) was 20.6 µM (inactive).
Cc1ccc(S(=O)(=O)Nc2cccc(C)c2C)cc1 was tested, and the GI50 (SNB-78) was 62.1 µM (inactive), the GI50 (M19-MEL) was 67.5 µM (inactive) and the GI50 (LXFL 529) was 56.2 µM (inactive). The GI50 (DMS-273) was 45.6 µM (inactive), the GI50 (RXF 631) was 66.1 µM (inactive) and the GI50 (XF498) was < 0.01 µM (active). For the same compound, the GI50 (DMS-114) was 28.8 µM (inactive).
With [O-][Cl+3]([O-])([O-])O.c1ccc(/N=c2\snc(-c3ccccc3)s2)cc1 the GI50 (DLD-1) was > 100 µM (inactive), the GI50 (SNB-78) was > 100 µM (inactive) and the GI50 (M19-MEL) was > 100 µM (inactive). The GI50 (LXFL 529) was > 100 µM (inactive), the GI50 (DMS-273) was > 100 µM (inactive) and the GI50 (KM-20L2) was > 100 µM (inactive). The GI50 (DMS-114) was > 100 µM (inactive).
With C=C(C[N+](C)(C)C)N/N=C/c1oc(-c2ccc(OC)c(OC)c2)c(-c2ccc(OC)c(OC)c2)c1[N+](=O)[O-] the GI50 (DLD-1) was 19.9 µM (inactive), the GI50 (SNB-78) was 36.4 µM (inactive) and the GI50 (M19-MEL) was 15.5 µM (inactive). For the same compound, the GI50 (LXFL 529) was 22.9 µM (inactive), the GI50 (KM-20L2) was 31.7 µM (inactive) and the GI50 (XF498) was 23.7 µM (inactive).
For CC(C)=CC(=O)CC(=O)C(=O)Nc1ccc(C)c(C)c1, the GI50 (DLD-1) was > 100 µM (inactive), the GI50 (SNB-78) was > 100 µM (inactive) and the GI50 (M19-MEL) was > 100 µM (inactive). The GI50 (LXFL 529) was > 100 µM (inactive), the GI50 (DMS-273) was > 100 µM (inactive) and the GI50 (RXF 631) was > 100 µM (inactive). The GI50 (KM-20L2) was > 100 µM (inactive) and the GI50 (XF498) was > 100 µM (inactive).
For COC(=O)c1c(O)ccc(O)c1C(C(C)=O)C(C)=O, the GI50 (DLD-1) was > 100 µM (inactive), the GI50 (SNB-78) was > 100 µM (inactive) and the GI50 (M19-MEL) was > 100 µM (inactive). The GI50 (LXFL 529) was > 100 µM (inactive), the GI50 (DMS-273) was > 100 µM (inactive) and the GI50 (XF498) was > 100 µM (inactive). The GI50 (DMS-114) was > 100 µM (inactive).
Cc1noc2c1C(=O)CCC2 was tested, and the GI50 (DLD-1) was > 100 µM (inactive), the GI50 (SNB-78) was > 100 µM (inactive) and the GI50 (M19-MEL) was > 100 µM (inactive). The GI50 (LXFL 529) was > 100 µM (inactive), the GI50 (KM-20L2) was > 100 µM (inactive) and the GI50 (XF498) was > 100 µM (inactive). The GI50 (DMS-114) was > 100 µM (inactive).
For CC1=C(C(=O)Nc2ccccc2C)C(c2ccccc2C)C(C(=O)Nc2ccccc2C)=C(C)N1, the GI50 (DLD-1) was 14.7 µM (inactive), the GI50 (SNB-78) was 33 µM (inactive) and the GI50 (M19-MEL) was 21.7 µM (inactive). The GI50 (LXFL 529) was > 10 µM (inactive), the GI50 (RXF 631) was 26.1 µM (inactive) and the GI50 (KM-20L2) was 20.9 µM (inactive). For the same compound, the GI50 (XF498) was 18.7 µM (inactive) and the GI50 (DMS-114) was 26.6 µM (inactive).
In the case of O=C1c2c(O)cccc2C(C(=O)CCCCC(=O)C2c3cccc(O)c3C(=O)c3c(O)cccc32)c2cccc(O)c21, the GI50 (DLD-1) is reported as 1.04 µM (active), the GI50 (SNB-78) is reported as 0.55 µM (active) and the GI50 (LXFL 529) is reported as 0.441 µM (active). For the same compound, the GI50 (DMS-273) was 1.63 µM (inactive), the GI50 (RXF 631) was 0.78 µM (active) and the GI50 (KM-20L2) was 0.918 µM (active). The GI50 (XF498) was 0.501 µM (active) and the GI50 (DMS-114) was 0.522 µM (active).
For CNC1=Nc2ccc(Cl)cc2C(c2ccccc2)=NN1C, the GI50 (DLD-1) was > 100 µM (inactive), the GI50 (SNB-78) was > 100 µM (inactive) and the GI50 (M19-MEL) was > 100 µM (inactive). For the same compound, the GI50 (LXFL 529) was > 100 µM (inactive), the GI50 (DMS-273) was > 100 µM (inactive) and the GI50 (RXF 631) was 74 µM (inactive). The GI50 (KM-20L2) was > 100 µM (inactive), the GI50 (XF498) was 31.6 µM (inactive) and the GI50 (DMS-114) was 53.2 µM (inactive).
With C[N+]12c3ccccc3O[B-]1(c1ccccc1)Oc1ccccc12 (centres undefined) the GI50 (DLD-1) was 18.2 µM (inactive), the GI50 (SNB-78) was 47 µM (inactive) and the GI50 (LXFL 529) was 28.4 µM (inactive). The GI50 (DMS-273) was 29.2 µM (inactive) and the GI50 (DMS-114) was 17.6 µM (inactive).
